Measurements: PubChem BioAssay AID248 (DTP/NCI, 2004)
Inconclusive results and toxic doses are left out. No stated cut-off is given here; in the data, active means T/C of 150% or more; inactive means T/C below 125%.

Tested on: L1210 leukemia ip in BDF1 mice, survival T/C
Assay: NCI In Vivo Anticancer Drug Screen. Data for tumor model L1210 Leukemia (intraperitoneal) in B6D2F1 (BDF1) mice
Conditions: endpoint: mean survival time, higher = longer survival
Method in brief: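 Survival endpoint. Drug-treated group vs vehicle group, expressed as T divided by C. Tumor passaged by transplantation.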

[1] = dose: 100.0 mg/kg/injection, schedule: Q04DX002 (ip), vehicle: saline
[2] = dose: 100.0 mg/kg/injection, schedule: Q01DX001 (ip), vehicle: saline
[3] = dose: 200.0 mg/kg/injection, schedule: Q01DX001 (ip), vehicle: saline
[4] = dose: 100.0 mg/kg/injection, schedule: Q04DX003 (ip), vehicle: Klucel (hydroxypropylcellulose) (HPC)
[5] = dose: 200.0 mg/kg/injection, schedule: Q04DX003 (ip), vehicle: Klucel (hydroxypropylcellulose) (HPC)
[6] = dose: 400.0 mg/kg/injection, schedule: Q04DX003 (ip), vehicle: Klucel (hydroxypropylcellulose) (HPC)
[7] = dose: 100.0 mg/kg/injection, schedule: Q01DX009 (ip), vehicle: Klucel (hydroxypropylcellulose) (HPC)
[8] = dose: 200.0 mg/kg/injection, schedule: Q01DX009 (ip), vehicle: Klucel (hydroxypropylcellulose) (HPC)
[9] = dose: 50.0 mg/kg/injection, schedule: Q04DX003 (ip), vehicle: saline
[10] = dose: 100.0 mg/kg/injection, schedule: Q04DX003 (ip), vehicle: saline
[11] = dose: 100.0 mg/kg/injection, schedule: Q01DX001 (ip), vehicle: saline with Tween-80
[12] = dose: 100.0 mg/kg/injection, schedule: Q01DX009 (ip), vehicle: saline with Tween-80
[13] = dose: 200.0 mg/kg/injection, schedule: Q01DX009 (ip), vehicle: saline with Tween-80
[14] = dose: 400.0 mg/kg/injection, schedule: Q01DX009 (ip), vehicle: saline with Tween-80

Measured: T/C

COC(=O)c1nc(-c2ccc3c(n2)C(=O)C(N)=C(OC)C3=O)c(N)c(-c2ccc(OC)c(OC)c2O)c1C
inactive: dose: 0.5 mg/kg/injection, schedule: Q01DX015 (ip), vehicle: water 116 % of control | dose: 1.0 mg/kg/injection, schedule: Q01DX001 (ip), vehicle: water 110 % of control | dose: 1.0 mg/kg/injection, schedule: Q01DX015 (ip), vehicle: water 119 % of control | dose: 2.0 mg/kg/injection, schedule: Q01DX001 (ip), vehicle: water 109 % of control | dose: 2.0 mg/kg/injection, schedule: Q01DX015 (ip), vehicle: water 98 % of control | dose: 3.0 mg/kg/injection, schedule: Q01DX001 (ip), vehicle: carboxymethylcellulose (CMC) 104 % of control | dose: 6.0 mg/kg/injection, schedule: Q01DX001 (ip), vehicle: carboxymethylcellulose (CMC) 110 % of control | dose: 12.0 mg/kg/injection, schedule: Q01DX001 (ip), vehicle: carboxymethylcellulose (CMC) 105 % of control | dose: 24.0 mg/kg/injection, schedule: Q01DX001 (ip), vehicle: carboxymethylcellulose (CMC) 104 % of control | dose: 48.0 mg/kg/injection, schedule: Q01DX001 (ip), vehicle: carboxymethylcellulose (CMC) 105 % of control

NC(=O)NNC(=O)C(Cl)(Cl)Cl
inactive: dose: 25.0 mg/kg/injection, schedule: Q04DX002 (ip), vehicle: saline 108 % of control | dose: 50.0 mg/kg/injection, schedule: Q04DX002 (ip), vehicle: saline 99 % of control | [1] 101 % of control

C=C1CCC2C(O)CCN2C1=O (stereo not given)
inactive: dose: 25.0 mg/kg/injection, schedule: Q01DX001 (ip), vehicle: saline 103 % of control | dose: 50.0 mg/kg/injection, schedule: Q01DX001 (ip), vehicle: saline 106 % of control | [2] 109 % of control | [3] 104 % of control

CC(C)Oc1ccc2ccccc2c1
inactive: dose: 12.5 mg/kg/injection, schedule: Q04DX003 (ip), vehicle: acetone 94 % of control | dose: 25.0 mg/kg/injection, schedule: Q04DX003 (ip), vehicle: acetone 93 % of control | dose: 50.0 mg/kg/injection, schedule: Q04DX003 (ip), vehicle: acetone 93 % of control

CC1(C)OCC(C2OC(=S)OC2C2COC(C)(C)O2)O1 (stereo not given)
inactive: dose: 50.0 mg/kg/injection, schedule: Q04DX002 (ip), vehicle: Klucel (hydroxypropylcellulose) (HPC) 93 % of control | dose: 100.0 mg/kg/injection, schedule: Q04DX002 (ip), vehicle: Klucel (hydroxypropylcellulose) (HPC) 98 % of control | dose: 200.0 mg/kg/injection, schedule: Q04DX002 (ip), vehicle: Klucel (hydroxypropylcellulose) (HPC) 104 % of control

CC(=O)OCC(C)(C)N
inactive: [1] 89 % of control | dose: 200.0 mg/kg/injection, schedule: Q04DX002 (ip), vehicle: saline 110 % of control | dose: 400.0 mg/kg/injection, schedule: Q04DX002 (ip), vehicle: saline 95 % of control

Nc1c(Cl)ncnc1NCCCCCO
inactive: [4] 100 % of control | [5] 94 % of control | [6] 107 % of control

ClC(=C(c1ccccc1)c1ccccc1)c1ccccc1
inactive: [7] 92 % of control | [4] 94 % of control | [8] 96 % of control | [5] 92 % of control | dose: 400.0 mg/kg/injection, schedule: Q01DX009 (ip), vehicle: Klucel (hydroxypropylcellulose) (HPC) 95 % of control | [6] 95 % of control

Cn1cc[nH]c1=S
inactive: dose: 25.0 mg/kg/injection, schedule: Q04DX003 (ip), vehicle: saline 114 % of control | [9] 90 % of control | [2] 110 % of control | [10] 98 % of control | [3] 107 % of control | dose: 400.0 mg/kg/injection, schedule: Q01DX001 (ip), vehicle: saline 105 % of control

CCN(CC#N)c1ccc(Nc2cc(Cl)ccc2Cl)cc1
inactive: dose: 75.0 mg/kg/injection, schedule: Q01DX001 (ip), vehicle: other 107 % of control | dose: 150.0 mg/kg/injection, schedule: Q01DX001 (ip), vehicle: other 96 % of control | dose: 300.0 mg/kg/injection, schedule: Q01DX001 (ip), vehicle: other 100 % of control

N=c1sc2ccccc2n1CC(=O)O
inactive: dose: 25.0 mg/kg/injection, schedule: Q01DX001 (ip), vehicle: saline with Tween-80 92 % of control | dose: 50.0 mg/kg/injection, schedule: Q01DX001 (ip), vehicle: saline with Tween-80 96 % of control | [11] 94 % of control

O=C(C1CC2CCC1C2)C1CC2CCC1C2 (stereo not given)
inactive: [12] 98 % of control | [4] 97 % of control | [13] 95 % of control | [5] 100 % of control | [14] 96 % of control | [6] 100 % of control

COC(=O)c1nccnc1N
inactive: dose: 50.0 mg/kg/injection, schedule: Q01DX009 (ip), vehicle: Klucel (hydroxypropylcellulose) (HPC) 94 % of control | dose: 75.0 mg/kg/injection, schedule: Q01DX001 (ip), vehicle: alcohol 108 % of control | [7] 97 % of control | [4] 94 % of control | dose: 150.0 mg/kg/injection, schedule: Q01DX001 (ip), vehicle: alcohol 105 % of control | [8] 108 % of control | [5] 92 % of control | dose: 300.0 mg/kg/injection, schedule: Q01DX001 (ip), vehicle: alcohol 100 % of control | [6] 95 % of control

CCCCCCCCCCC[CH2][Hg][Cl]
inactive: dose: 6.25 mg/kg/injection, schedule: Q04DX003 (ip), vehicle: Klucel (hydroxypropylcellulose) (HPC) 93 % of control

CSc1ccc(OC(C)=O)cc1
inactive: dose: 50.0 mg/kg/injection, schedule: Q01DX009 (ip), vehicle: saline with Tween-80 94 % of control | [12] 91 % of control | [13] 102 % of control

S=c1nc(-c2ccccc2)[nH][nH]1
inactive: dose: 100.0 mg/kg/injection, schedule: Q04DX003 (ip), vehicle: saline with Tween-80 97 % of control | dose: 200.0 mg/kg/injection, schedule: Q04DX003 (ip), vehicle: saline with Tween-80 98 % of control | dose: 400.0 mg/kg/injection, schedule: Q04DX003 (ip), vehicle: saline with Tween-80 88 % of control

CC(C)C(C(=O)O)N(C)N=O (stereo not given)
inactive: [9] 94 % of control | dose: 100.0 mg/kg/injection, schedule: Q01DX001 (ip), vehicle: acetone 101 % of control | [10] 97 % of control | dose: 200.0 mg/kg/injection, schedule: Q01DX001 (ip), vehicle: acetone 103 % of control | dose: 200.0 mg/kg/injection, schedule: Q04DX003 (ip), vehicle: saline 94 % of control

O=C(O)c1ccccc1/C=C1/Nc2ccccc2C1=O
inactive: dose: 10.0 mg/kg/injection, schedule: Q01DX001 (ip), vehicle: acetone 102 % of control | dose: 20.0 mg/kg/injection, schedule: Q01DX001 (ip), vehicle: acetone 94 % of control

O=C(NCCCl)NC(Cc1ccccc1)C(=O)O (stereo not given)
inactive: [11] 94 % of control | dose: 200.0 mg/kg/injection, schedule: Q01DX001 (ip), vehicle: saline with Tween-80 94 % of control | dose: 400.0 mg/kg/injection, schedule: Q01DX001 (ip), vehicle: saline with Tween-80 91 % of control

O=[N+]([O-])c1cc([N+](=O)[O-])c2nc3ccccn3c2c1
inactive: [12] 96 % of control | [13] 102 % of control | [14] 107 % of control

CC(=O)CCCC1C(=O)N(c2ccccc2)N(c2ccccc2)C1=O
inactive: [4] 102 % of control | [5] 101 % of control | [6] 96 % of control
